Assay results reported in patent US20230355599A1, “BIOMARKERS FOR CBL, AND COMPOSITIONS AND METHODS FOR THEIR USE” (NURIX THERAPEUTICS, INC., priority 2022, published 2023).

Assays:
phosphorylated HS1 [1] = test: HS1 phosphorylation in stimulated CD8+ T cells of mice after a single oral dose (flow cytometry); format: in vivo
Method: To assess the in vivo effects of Compound 23 on candidate clinical proximal biomarkers of CBL-B inhibition and compare them to anti-tumor efficacy, two experiments were performed in mice. In the first experiment, whole blood was obtained from groups of mice (n=4 per group) administered a single oral dose of either vehicle (0.5% MC/0.2% polysorbate 80 in deionized water) or increasing doses of Compound 23 at 0.3, 1, 3, 10, 30, or 90 mg/kg. The response to Compound 23 on HS1 activation was measured in anti-CD3 and anti-CD28 stimulated CD8^+ T cells using flow cytometry. Compound 23 induced a dose-dependent increase in the proportion of phosphorylated HS1^+CD8^+ in the presence of anti-CD3 and anti-CD28 co-stimulation. The greatest induction of phosphorylated HS1 was observed upon ex vivo stimulation following administration of Compound 23 doses of ≥10 mg/kg. […] Statistical significance was calculated using 2-way ANOVA with Dunnett's multiple comparisons test.

phosphorylated ZAP70 = test: Phosphorylated ZAP70 in circulating CD8+ T cells of patients, Phase 1 trial (flow cytometry); format: in vivo, human
Method: [The procedure below names another target; the source lists this target under the same test.] Pharmacodynamic analysis of the proximal biomarker, phosphorylated HS1 is assessed in circulating CD8^+ T cells from patients that are being administered doses ranging from 5 to 50 mg of Compound 23 once daily and is being used to assess target engagement of Compound 23 as part of the dose/exposure-response profile. Whole blood is collected longitudinally and added into two types of TruCulture (Myriad) tubes. One tube contains media, and the second tube contains anti-CD3 and anti-CD28, which are subsequently crosslinked to induce cellular stimulation for pharmacodynamic analysis. Phosphorylated HS1 is assessed by flow cytometry pre and post dose on Cycle 1 Day 1 (C1D1) and Cycle 2 Day 1 (C2D1) to characterize single/multiple dose PD profiles.
% Maximal phosphorylated signal and % AUC are two commonly used parameters to assess the pharmacodynamic effects of drugs.
% Maximal phosphorylated signal refers to the maximum amount of a specific protein that becomes phosphorylated (i.e., modified by the addition of a phosphate group) in response to a drug or other stimulus. This parameter is often used to measure the activation of signaling pathways that are important for various cellular processes, including cell growth and differentiation, immune response, and metabolism.
% AUC, on the other hand, refers to the area under the curve (AUC) over time, expressed as a percentage of the maximum possible AUC. In summary, both % maximal phosphorylated signal and % AUC are useful parameters to assess the pharmacodynamic effects of drugs. % maximal phosphorylated signal is a measure of the activation of signaling pathways, while % AUC reflects the duration of the effect on PD signals. Both parameters can be used to evaluate the potency and duration of a drug's pharmacodynamic effects.

phosphorylated HS1 [2] = test: Phosphorylated HS1 in circulating CD8+ T cells after oral dosing of cynomolgus monkeys (flow cytometry, ex vivo anti-CD3/CD28 stimulation)
Method: To assess these proximal biomarkers of Cbl-b inhibition on CD8^+ T cells, pharmacodynamic analysis was performed in conjunction with a pharmacokinetic study conducted at Charles River Laboratories. Circulating blood was obtained from cynomolgus monkeys treated with 0.3, 1, 3 or 10 mg/kg of Compound 23 after a single dose and after 3 doses. The response to Cbl-b inhibition on proximal biomarkers (pHS1, pPLCγ2, and pZAP70) was measured in CD8^+ T cells using flow cytometry. This technique is highly quantitative and can measure multiple phosphorylation markers in different cell populations within the same sample.
Compound 23 was formulated in vehicle (0.2% Tween 80 in DI water+1 eq HCL) and aliquoted into individual (not serially diluted) dosing solutions of 0.3, 1, 3 and 10 mg/mL by stirring for 5-10 min, vortexing, and sonicating again as necessary to produce an even suspension that was stirred constantly at 4° C. to achieve and maintain a homogenous suspension. To prepare vehicle, 0.2% Tween 80 in deionized (DI) water, water was measured into a beaker with continuous stirring. Tween 80 was added sequentially, and stirring continued until the solution dissolved; the solution was stored at 2-8° C.
For pharmacodynamic analysis, whole blood was obtained from cynomolgus monkeys and used for flow cytometry assays to evaluate phosphorylated biomarkers, pHS1, pPLCγ2, and pZAP70, in circulating CD8^+ T cells.
On the day of dosing, blood samples were collected via femoral venipuncture in accordance with test facility standard operating procedures. 1 mL/tube of whole blood was collected pre-dose (time 0) and at 0.5, 1, 2, 4, 6, and 24 hours post-dose and added into 2 types of TruCulture tubes (Myriad) for pharmacodynamic analysis. One tube contained media alone and is denoted as “Null”, and the second tube contained 2 μg/mL anti-CD3 and anti-CD28, which were prepared at Nurix prior to the study using cynomolgus specific anti-CD3 (BD Biosciences; SP34-2) and anti-CD28 (Bio X cell; CD28.2) and denoted as “CD3/CD28”. Tubes were shipped by overnight courier on cold pack the day of collection and analyzed for phosphorylated biomarkers of Cbl-b inhibition by flow cytometry.
Following PD collection, upon receipt of TruCulture tubes, each tube was inverted 5-6 times to ensure a mixed suspension of blood. 30 μg of goat anti-mouse IgG (H+L) antibody (Invitrogen) was added to cross-link the stimulation antibodies and induce synchronized cellular stimulation. Cells were stimulated for 60 minutes alongside non-stimulated controls for each time point.
All buffers (Phosflow Lyse/Fix Buffer 5×, Phosflow Perm Buffer I; BD Biosciences) were prepared according to the manufacturer's instructions. After 60 minutes of goat anti-mouse IgG (H+L) antibody stimulation, one volume of blood was mixed with 20 volumes of pre-warmed BD Phosflow Lyse/Fix Buffer (1×) by repeated pipetting (8-10 times), then incubated in a 37° C. water bath for 10 min. Cells were washed and centrifuged at 500×g for 5 min (2×) with PBS. Following centrifugation, cell pellets were resuspended in cold BD Phosflow Perm Buffer I (BD) and incubated at 4° C. for 20 min. […]

[3] = 5 mg once daily, n=1, cycle 1, day 1
[4] = 15 mg once daily, n=12, cycle 1, day 1
[5] = 25 mg once daily, n=7, cycle 1, day 1
[6] = 50 mg once daily, n=2, cycle 1, day 1

## C[C@H]1CCCN(Cc2cc3c(c(C(F)(F)F)c2)CN(c2cccc([C@]4(c5nncn5C)C[C@@H](C)C4)c2)C3=O)C1 [Compound 23]
Phosphorylated HS1 [1]; pHS1+CD8+ T cells, mouse syngeneic tumor models, therapeutic range
  proximal biomarker pHS1 that correlates with the efficacious range: approximately 50%
Phosphorylated HS1 [1]; single oral dose 0.3-90 mg/kg, anti-CD3 and anti-CD28 stimulated CD8+ T cells
  minimum biological effect level observed in mice (EC50), phosphorylated HS1+ CD8+: 12 mg/kg
Phosphorylated HS1 [1]; single oral dose, ex vivo stimulation
  doses giving the greatest induction of phosphorylated HS1: ≥ 10 mg/kg
Phosphorylated ZAP70; [3]
  % of phosphorylated ZAP70 expressing CD8+ T cells (maximal): 47%
  phosphorylated ZAP70 AUC: 734
Phosphorylated ZAP70; [4]
  % of phosphorylated ZAP70 expressing CD8+ T cells (maximal): 83%
  phosphorylated ZAP70 AUC: 1641
Phosphorylated ZAP70; [5]
  % of phosphorylated ZAP70 expressing CD8+ T cells (maximal): 82%
  phosphorylated ZAP70 AUC: 1506
Phosphorylated ZAP70; [6]
  % of phosphorylated ZAP70 expressing CD8+ T cells (maximal): 85%
  phosphorylated ZAP70 AUC: 1870
Phosphorylated ZAP70; not statistically significant, p=0.06
  trend of maximal % pZAP70 with PK: Positive trend
Phosphorylated HS1 [2]; multiple doses of 10 mg/kg, 3 days of daily oral dosing
  phosphorylated HS1 in comparison to baseline: significant increases
Phosphorylated HS1 [2]; multiple doses of 10 mg/kg, 4 hours post dose
  time of peak increase of phosphorylated HS1: 76 h
Phosphorylated HS1 [2]; single dose oral 10 mg/kg
  time of maximal signal, phosphorylated HS1: 2 hours post dose
Phosphorylated HS1 [2]; single dose oral 10 mg/kg, after 24 hours
  phosphorylated HS1 sustained after 24 hours: significant increase
Phosphorylated HS1 [2]; single dose oral 10 mg/kg, circulating CD8+ T cells, anti-CD3/CD28 stimulated
  phosphorylated HS1 in comparison to baseline: significant increases
